Data on 1 molecule can be found in US9642925B2, “Magnetic nanoparticle formulations, methods for making such formulations, and methods for their use” (Sanford Research/USD, priority 2010, dated 2017).

In assay [1] the test system is A2780CP ovarian cancer cells. Kind of assay: In vitro cytotoxicity (MTT assay), A2780CP. Format: cell-based. The settings on record: A2780C/P, 48 h, 2 days, read-out: IC50 (50% cell growth inhibitory concentration). As to the method: (§1) In vitro cytotoxicity was assessed using a standard 3-(4,5-dimethylthiazol-2-yl)-2,5-diphenyltetrazolium bromide (MTT) based colorimetric assay (CellTiter 96 AQeous, Promega, Madison, Wis., USA). Ovarian (A2780CP), breast (MDA-MB-231), and prostate (PC3) cancer cells were used for this experiment. Cells (5000 cells/well in 100 μl media) were cultured in RPMI-1640 or DMEM medium containing 10% FBS and 1% penicillin-streptomycin in 96-well plates and allowed to attach overnight. The media was replaced with fresh media containing different concentrations (2.5-40 μM) of CUR and CUR containing MNPs (F127250-CUR). Equivalent amounts of DMSO or F127250 MNPs without drug in PBS were used as control. These plates were incubated at 37° C. for 2 days. After day 2, the media was replaced with 100 μl fresh media and the MTT reagent (25 μl/well) was added to each well and plates were incubated for 3 hrs at 37° C. in an incubator. The color intensity was measured at 492 nm using a microplate reader (BioMate 3 UV-Vis Spectrophotometer, Thermo Electron Corporation, Hudson, N.H., USA). The anti-proliferation potential of CUR and F127250-CUR treatments was calculated as a percentage of cell growth with respect to the DMSO and F127250 formulation in PBS controls. Standard deviations were obtained from 6 replicates.

Assay [2] has as its system MDA-MB-231 breast cancer cells. Kind of assay: In vitro cytotoxicity (MTT assay), MDA-MB-231. Format: cell-based. The following applies: Homo sapiens, 48 h; MDA-MB-231, 2 days; read-out: IC50 (50% cell growth inhibitory concentration). How it is done:
as §1
On the technique in general: Tetrazolium dyes change colour on reduction, which living cells bring about.

In assay [3] the test system is PC3 prostate cancer cells. Briefly: In vitro cytotoxicity (MTT assay), PC3. Format: cell-based. The following applies: 48 h; PC3, 2 days; read-out: IC50 (50% cell growth inhibitory concentration). How it is done:
as §1

For the next assay, the system named is PARP. Kind of assay: Western blot for PARP cleavage in PC3 cells. Format: cell-based. The following applies: 20 μM. As to the method: The immunoblot analyses were performed to determine anti-cancer effects of our formulation at the molecular level. For these experiments, cancer cells were collected after 2 days of treatment with 10 μM and 20 μM CUR and 10 μM and 20 μM of F127250-CUR and processed for protein extraction and Western blotting using standard procedures. The cell lysates were separated by gel electrophoresis on polyacrylamide gels containing sodium dodecyl sulfate and then transferred to PVDF membranes. The membranes were blocked with Tris-buffered saline (TBS) containing 5% (w/v) skimmed milk. After washing thrice with Tween 20, the membranes were incubated overnight with primary antibody specific to Bcl-xL or PARP at 4° C. After washing, the membranes were incubated for 1 hr with secondary antibody (Promega, Madison Wis., USA). Protein bands were visualized using the Lumi-Light Detection Kit (Roche, Nutley, N.J., USA) and detected with a BioRad Gel Doc (BioRad, Hercules, Calif., USA).

In a further assay the test system is PC3 cancer cells. Kind of assay: Ultrastructural changes in cancer cells by TEM. Format: cell-based. The settings on record: 20 μM. How it is done: The uptake (internalization) pattern of nanoparticles was monitored by transmission electron microscopy (TEM) to further validate the cellular uptake capability of magnetic nanoparticles in cancer cells which was visually observed. For this experiment, aforementioned cells (1×10^7 cells per 150 mm plate) were incubated with 1 mg of particles in 20 ml media for 6 hrs. The treated cells were centrifuged and fixed with standard formaldehyde (4%)-glutaraldehyde (1%) fixative solution followed by OsO4 fixative solution. Next, cells were dehydrated in a graded series of acetone and embedded in Spurr resin. These cell-containing resin blocks were sectioned using an ultramicrotome and ultrathin sections (70-90 nm thickness) were transferred onto TEM grid (grid size: 97 μm) (Ted Pella Inc., Redding, Calif., USA). The grids were processed with uranyl acetate and lead acetate solutions to visualize cellular ultra structures.
The variation of ultrastructural changes in the cancer cells upon exposure to control (DMSO and F127250 formulation), 20 μM CUR or 20 μM F127250-CUR were observed by transmission electron microscopy (TEM) analysis.

Another assay relates to Bcl-xL. Kind of assay: IHC of Bcl-xL expression in pancreatic tumor xenografts. Format: in vivo, athymic nude mice. The following applies: intra-tumoral at day 20. How it is done: (§2) FIG. 15. The effect of MNP-curcumin formulation on the expression of Bcl-xL and MCL-1 oncogenes in pancreatic tumor xenografts. Pancreatic tumor xenografts were generated in athymic nude mice by subcutaneous (sc) injection of HPAFII human pancreatic cancer cells. […] The presence of MNPs (iron) in tumors was determined by Prussian Blue staining. Original Magnifications 200×.
(§3) We then tested to effect of MNP-curcumin formulation on the expression of Bcl-xL and MCL-1 oncogenes in pancreatic tumor xenografts. Pancreatic tumor xenografts were generated in athymic nude mice by subcutaneous (sc) injection of HPAFII human pancreatic cancer cells.

Another assay deals with MCL-1. Kind of assay: IHC of MCL-1 expression in pancreatic tumor xenografts. Format: in vivo, athymic nude mice. The following applies: intra-tumoral at day 20. As to the method:
as §2, §3

Consider `COc1cc(/C=C/C(=O)CC(=O)/C=C/c2ccc(O)c(OC)c2)ccc1O` [curcumin, (E,E)-1,7-bis(4-Hydroxy-3-methoxyphenyl)-1,6-heptadiene-3,5-dione], for which the values for the IC50 in assay [1], in assay [2] and in assay [3] were 12.6 µM, 18.8 µM and 10.6 µM, respectively. Besides, in the assay on PARP, the PARP cleavage entry is recorded as “considerable cleavage”. Further, the “ultrastructural changes (vacuole formation)” value with PC3 cancer cells was “formation of endosomal-lysosomal-vacules”. Also, the “expression of Bcl-xL oncogene in tumor xenografts” value in the assay on Bcl-xL is recorded as “effectively inhibited the expression”. In addition, in the assay on MCL-1, the “expression of MCL-1 oncogene in tumor xenografts” value was “effectively inhibited the expression”.
